Here are results for one molecule from PMC7449217, “The FDA-Approved Drug Nelfinavir Inhibits Lytic Cell-Free but Not Cell-Associated Nonlytic Transmission of Human Adenovirus” (Antimicrobial Agents and Chemotherapy, 2020).

A word on the EC50: it is the concentration giving half of the maximal effect. Higher therefore signals weaker potency.

The structures appear in SMILES notation. Counter-ions that a name gives are not always drawn.

For one data set, the system named is MAdV-3-pIX-FS2A-GFP. The data set can be described thus: fluorescence-based plaque-forming assay, CMT-93 cells. It counts as cell-based, mouse adenovirus. The method, then: Per 96-well plate, 15,000 A549 cells, 10,000 HeLa cells, 30,000 HBECs, 30,000 HCE cells, or 30,000 CMT-93 cells were seeded in 100 μl of the respective supplemented medium and allowed to settle for 1 h at room temperature (RT) prior to cell culture incubation at 37°C with 5% CO2 and 95% humidity. The following day, the medium was replaced with 50 μl of the respective virus stock dilution giving rise to 5 to 50 plaques per 96-well plate. Fifty microliters of nelfinavir to obtain a 0.1 to 50 μM final concentration or the DMSO solvent control was also added, both in supplemented medium. For each experiment, a noninfected, treated control was performed. […] Plates were imaged on either an IXM-XL or an IXM-C automated high-throughput fluorescence microscope (Molecular Devices, San Jose, CA, USA) using a 4× objective in wide-field mode. Hoechst staining was recorded in the 4′,6-diamidino-2-phenylindole (DAPI) channel, the fluorescein isothiocyanate (FITC)/GFP channel was acquired for viral GFP, and the tetramethyl rhodamine isothiocyanate (TRITC)/Texas Red channel was acquired for hexon immunofluorescence staining.
The infection phenotype for each well was quantified using Plaque2.0 ([101]). The number of plaques was determined based on the infection signal (viral GFP or hexon immunofluorescence staining). […] The mean TI50 was calculated as the EC50/TC50 ratio of the means. […]

A further data set has as its system HAdV-C2-dE3B-GFP. The data set can be described thus: quantification of infectious progeny in the supernatant, titration on A549 cells. It counts as cell-based, human adenovirus. The following applies: 1.25 μM, 7 dpi, HAdV-C2-dE3B-GFP-infected A549 cells. The method, then:
A549 cells were seeded at 480,000 cells per 6-well plate in full DMEM and infected at 1,100 PFU HAdV-C2-dE3B-GFP per well the next day. Following 1 h of warm incubation, the supernatant was removed, and cells were washed with PBS and detached by trypsin digestion. Infected cells were centrifuged and resuspended in fresh medium to remove any unbound input virus and seeded at 180,000 cells/12-well plate in medium supplemented with 1.25, 3, or 10 μM nelfinavir or equivalent amounts of the DMSO solvent control. At the indicated times postinfection, the supernatant was harvested and cleared by centrifugation. Two hundred microliters of PBS/well was added to the infected monolayer. Cells were disrupted by three freeze-thaw cycles, and freon extraction was performed. The supernatant and cell lysate were stored at 4°C until titration on naive A549 cells. PFA-fixed, Hoechst-stained cells were imaged at 44 hpi using a 4× objective (NA, 0.20) on an IXM-XL epifluorescence microscope (Molecular Devices, San Jose, CA, USA). GFP-positive infected cells were classified based on the median nuclear GFP intensity using automated image analysis by CellProfiler ([178]).
Four hundred eighty thousand A549 cells were seeded per 6-well dish, inoculated with 1,100 PFU HAdV-C2-dE3B-GFP/well for 1 h at 37°C, washed with PBS, and detached by trypsin digestion. […]

`Cc1c(O)cccc1C(=O)N[C@@H](CSc1ccccc1)[C@H](O)CN1C[C@H]2CCCC[C@H]2C[C@H]1C(=O)NC(C)(C)C` [Nelfinavir, Nelfinavir mesylate]: in the data set on MAdV-3-pIX-FS2A-GFP (MAdV-3-pIX-FS2A-GFP in CMT-93, 4 dpi, GFP), the “TI50 (TC50/IC50)” value is 3.00. Further, the EC50 in the data set with MAdV-3-pIX-FS2A-GFP (Murine mastadenovirus A, CMT93) came to 8.7 µM. Besides, the “reduction of total yield of infectious particles in the supernatant” value in the data set with HAdV-C2-dE3B-GFP is given as 3 orders of magnitude.
